Here are results for 79 molecules from the METLIN SMRT retention time set (Domingo-Almenara et al. 2019).

Each structure is given as a SMILES string.

This data set can be described thus: gradient 5% acetonitrile 3 min, to 50% in 2 min, to 85% in 15 min, held 3 min, 100 µL/min. Conditions: column: Zorbax Extend-C18 2.1 x 50 mm; eluents: water / acetonitrile, 0.1% formic acid. The method in brief:
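Retention time was recorded from adduct peaks, which were picked computationally and each inspected manually. Pure standards ran in mixtures of ~100 molecules on HPLC coupled to a quadrupole time-of-flight mass spectrometer, in positive and negative ionization mode, through a Zorbax Extend-C18 column (2.1 × 50 mm, 1.8 μm) at 100 μL/min. Eluents were water and acetonitrile, each with 0.1% formic acid.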
`CCn1nccc1-c1nc(C2CC(=O)N(c3ccc(C)cc3)C2)no1` (centres undefined) had an RP-LC retention time of 680 s.

On to `O=C(NC1CCCCC1)N1CCC(CCc2nc(C3CCOCC3)no2)CC1`, for which the RP-LC retention time came out at 709 s.

In the case of `Fc1ccc(C2Cn3nnc(-c4nc(-c5ccccn5)no4)c3CO2)cc1` (centres undefined), the RP-LC retention time was 854 s.

Turning to `O=C(CN1CCC(c2nc(-c3cccs3)no2)CC1)N1CCN(c2ccccc2)CC1`, the RP-LC retention time turned out to be 702 s.

`CCN(CC)CCNC(=O)C1CCN(c2nnc3ccc(Cl)cn23)CC1`: the RP-LC retention time turned out to be 565 s.

In the case of `CCC(C)NC(=O)c1c(C)sc2ccn(Cc3ccc(F)cc3)c(=O)c12` (centres undefined), the RP-LC retention time turned out to be 929 s.

Molecule `O=C1NC(C(=O)Nc2ccc(F)c(F)c2)Cn2cccc21` (centres undefined) showed an RP-LC retention time of 693 s.

Molecule `Cc1ccc(-n2ncc3c(=O)n(Cc4nc(-c5ccc(Cl)c(F)c5)no4)cnc32)cc1` gave an RP-LC retention time of 1210 s.

As to `COc1ccc(N2CC(c3noc(-c4ccc(C)c(C)c4)n3)CC2=O)cc1OC` (centres undefined), the RP-LC retention time was determined as 983 s.

Molecule `O=C(NC1CC1)C1CCN(C(=O)c2cc(-c3ccncc3)n[nH]2)CC1` registered an RP-LC retention time of 546 s.

`Cn1nc2n(c1=O)CCC(NC(=O)c1cc(C3CC3)[nH]n1)CC2` (centres undefined) showed an RP-LC retention time of 586 s.

Molecule `O=C1C(OC2CCN(S(=O)(=O)c3ccccc3Cl)CC2)CCN1CC1CC1` (centres undefined) showed an RP-LC retention time of 870 s.

Molecule `CCCn1c(-c2cccc(C(=O)NC(CC)c3cccs3)c2)nc2cccnc21` (centres undefined) yielded an RP-LC retention time of 886 s.

For the molecule `COc1ccc(-c2noc(C3(NC(=O)c4ccc(OC)c(F)c4)CCCCC3)n2)cc1`, the RP-LC retention time amounted to 1140 s.

`COC(=O)c1ccc(C(=O)NCC(c2ccccc2Cl)N(C)C)cc1` (centres undefined): the RP-LC retention time came to 560 s.

In turn, `COCCNc1cc(-n2ccnc2C)n2nccc2n1` had an RP-LC retention time of 554 s.

For the molecule `CNC(=O)c1ccccc1Nc1cc(Nc2ccc(N3CCOCC3)cc2OC)ncc1C(F)(F)F`, the RP-LC retention time worked out at 764 s.

As to `O=C(Cn1c(=O)n(Cc2cccnc2)c(=O)c2ncccc21)c1ccc2c(c1)OCCO2`, the RP-LC retention time amounted to 554 s.

With `CC1CCN(CCNC(=O)Cn2c(=O)n(-c3ccc(F)cc3)c3ncccc32)CC1`, the RP-LC retention time turned out to be 614 s.

For the molecule `O=C(C1=CN(c2ccc(F)cc2)c2cc(F)ccc2S1(=O)=O)N1CCCC1`, the RP-LC retention time came to 748 s.

In turn, `COc1ccc(CCC(=O)NC(CC(C)C)C(=O)Nc2nc3ccccc3[nH]2)cc1` (centres undefined) showed an RP-LC retention time of 745 s.

With `Cc1ccc(C)c(N2CCN(C(=O)c3[nH]c(C)c(S(=O)(=O)N4CCCC4)c3C)CC2)c1`, the RP-LC retention time stood at 1020 s.

The molecule `CCc1ccc2c(c1)-c1ccccc1S(=O)(=O)N2CC(=O)N1CCN(CC)CC1` registered an RP-LC retention time of 678 s.

As to `COC(=O)c1ccc(-c2nc3cnccn3c2Nc2cccc(C)c2C)cc1`, the RP-LC retention time came out at 980 s.

`O=C(NCc1csc(C2CCN(C(=O)c3c(F)cccc3F)CC2)n1)C1CCC1` displayed an RP-LC retention time of 740 s.

Consider `O=C(Cn1cncc(-c2nc(-c3ccccc3)cs2)c1=O)N1CCCC1`, for which the RP-LC retention time is 789 s.

`COc1ccc(C(=O)N2CCc3c(c(C(=O)N4CCCC(C(=O)NC5CC5)C4)nn3C)C2)c(OC)c1` (centres undefined) gave an RP-LC retention time of 638 s.

`CS(=O)(=O)Nc1ccc(-c2noc(CN3C(=O)COc4ccccc43)n2)cc1`: the RP-LC retention time turned out to be 805 s.

With `CN(C)C(=O)c1cn(C2CN(C(=O)c3cccc(C#N)c3)C2)nn1`, the RP-LC retention time turned out to be 613 s.

`Cc1cccc(-c2[nH]ncc2CN)c1` had an RP-LC retention time of 561 s.

For `COc1cc(NC(=O)CSc2ncc(-c3cccc(Cl)c3)o2)cc(OC)c1OC`, the RP-LC retention time turned out to be 896 s.

Regarding `Cn1c(=O)c(-c2ccc(C(=O)NCC3CCCO3)cc2)nc2ccccc21` (centres undefined), the RP-LC retention time is 724 s.

As to `O=C([C@@H]1C[C@H](F)CN1S(=O)(=O)Cc1ccc(Cl)cc1)N1CCCCC1`, the RP-LC retention time came to 881 s.

Regarding `Cc1nc2cc(-c3noc(C(C)Oc4cccc(Cl)c4)n3)ccc2n(C)c1=O` (centres undefined), the RP-LC retention time came to 1110 s.

In turn, `Cc1cc(C)c(S(=O)(=O)N2CCC(C(=O)NCc3csc(-c4cccs4)n3)CC2)cc1C` registered an RP-LC retention time of 1050 s.

Molecule `CCC(C)NC(=O)Cn1nc2c3cc(-c4ccc(Cl)cc4)nn3ccn2c1=O` (centres undefined) returned an RP-LC retention time of 868 s.

`CCCn1cc(C(=O)NC2CCCC2)c2cccnc21` returned an RP-LC retention time of 794 s.

The molecule `CSc1ccc(-c2nc3nc(C)cc(C)n3c2Nc2ccc(C)cc2)cc1` registered an RP-LC retention time of 810 s.

On to `CC(C)NC(=O)N(C)Cc1ccsc1`, for which the RP-LC retention time stood at 730 s.

Turning to `CC1CCCN(CC2CCN(S(=O)(=O)c3ccc4c(c3)CCC4)CC2)C1` (centres undefined), the RP-LC retention time stood at 719 s.

Molecule `Cc1cccc(NC(=O)Cn2c(C)nc3c(sc4nc(-c5ccccc5)ccc43)c2=O)c1` registered an RP-LC retention time of 880 s.

`O=C(c1ccccc1Cl)N1CCC(COCc2ccccc2)CC1` gave an RP-LC retention time of 979 s.

With `COc1ccc(-c2nc(-c3cn(Cc4ccc(F)cc4)nn3)no2)c(OC)c1`, the RP-LC retention time came out at 940 s.

`Cc1ccccc1-c1nnc(CSc2nnc(NC(=O)c3ccc(Br)o3)s2)o1` had an RP-LC retention time of 919 s.

`Cc1cc2nc(C(=O)Nc3ccc(F)c(C)c3)cc(C)n2n1` returned an RP-LC retention time of 1010 s.

In turn, `O=C(Nc1ccccc1F)C1CCN(c2cc(N3CCCCC3)ncn2)CC1` displayed an RP-LC retention time of 689 s.

The molecule `O=C(NCC(c1cccnc1)c1c[nH]c2ccccc12)Nc1cccc(F)c1` (centres undefined) registered an RP-LC retention time of 671 s.

Turning to `COc1ccc(-c2cn3c(CC(=O)N4CCN(c5ccccc5)CC4)csc3n2)cc1OC`, the RP-LC retention time worked out at 730 s.

For the molecule `Cc1c(F)cccc1NC(=O)NC1CCN(c2ccc(F)cc2)C1=O` (centres undefined), the RP-LC retention time is 866 s.

Consider `CN(C)CCn1cc(C(=O)NCc2ccco2)ccc1=O`, for which the RP-LC retention time is 590 s.

Turning to `COc1ccc(NC(=O)NC2CCN(c3ccc(C)cc3)C2=O)cc1OC` (centres undefined), the RP-LC retention time was found to be 720 s.

Turning to `Cn1c(=O)n(C)c2cc(S(=O)(=O)C3CCCCC3)c(NC(=O)C3CC3)cc21`, the RP-LC retention time turned out to be 814 s.

Take `CNC(=O)c1cc(Cc2ccc3nc(Nc4cccc(C(F)(F)F)c4)[nH]c3c2)ccn1`: the RP-LC retention time is 680 s.

With `CC1=C(c2ccc(C)cc2)S(=O)(=O)N=C1N1CCCN(C(=O)C2CC2)CC1`, the RP-LC retention time is 581 s.

`O=C(Nc1ccc(Br)c(F)c1)c1cnc(-c2ccccc2)nc1-c1ccncc1` showed an RP-LC retention time of 1030 s.

`O=C(Nc1ccc(C(F)(F)F)cc1)N1CCCC(Cn2c(C3CC3)nc3cccnc32)C1` (centres undefined) yielded an RP-LC retention time of 798 s.

Turning to `CCNC(=O)c1nc2cc(C)c(C)cc2n(C)c1=O`, the RP-LC retention time is 698 s.

`COc1ccc(CNC(=O)c2cccc(N3CCNC(c4ccccc4)C3)n2)cc1` (centres undefined) came in with an RP-LC retention time of 634 s.

For the molecule `Cc1cc(C)n(Cc2ccc(C(=O)N3CCN(Cc4noc5ccccc45)CC3)o2)n1`, the RP-LC retention time was 672 s.

With `CCc1ccc(N2CC(c3nc(-c4ccc(OC)cc4)no3)CC2=O)cc1` (centres undefined), the RP-LC retention time came to 988 s.

In turn, `O=C(Nc1ccc(F)c(F)c1)C1CCCN(C(=O)Cc2cccc3ccccc23)C1` (centres undefined) displayed an RP-LC retention time of 1020 s.

For `CCN1C(=O)COc2ccc(-c3noc(C4CCCN(S(=O)(=O)c5ccc(C)cc5)C4)n3)cc21` (centres undefined), the RP-LC retention time is 1100 s.

`O=C(Nc1cccc(Cl)c1F)N1CCCC(Cn2c(C3CC3)nc3cccnc32)C1` (centres undefined) returned an RP-LC retention time of 723 s.

In the case of `O=C(NCC1CCCO1)c1ccc(-c2cnc(Oc3ccc(F)cc3)nc2)cc1` (centres undefined), the RP-LC retention time is 793 s.

Regarding `COCC1CN(C(C)=O)CC12CCN(C(=O)C1CC=CCC1)CC2` (centres undefined), the RP-LC retention time is 671 s.

`Cc1ccc(Cn2c(=O)n(CCNC(=O)C3CCCO3)c3ncccc32)cc1` (centres undefined) came in with an RP-LC retention time of 726 s.

`Cc1ccc2[nH]cc(CCNC(=O)CCC(=O)N3Cc4cccn4-c4ccccc43)c2c1` showed an RP-LC retention time of 868 s.

Molecule `CC(=O)c1ccc(NS(=O)(=O)N2CCC(C)CC2)cc1` gave an RP-LC retention time of 780 s.

For the molecule `O=c1ccc(-c2ccc3c(c2)OCO3)nn1CCc1nc(-c2ccncc2)no1`, the RP-LC retention time turned out to be 730 s.

Regarding `Cc1nn(C)c(C)c1CCN(C)C(=O)C1Cn2cccc2C(=O)N1C` (centres undefined), the RP-LC retention time was 680 s.

Molecule `COc1cccc(Cn2c(=O)c3cnc(-c4ccncc4)nc3n(C)c2=O)c1` came in with an RP-LC retention time of 805 s.

As to `CCOc1ccc(NC(=O)Cn2c(=O)n(-c3ccccc3)c(=O)c3c2cc(C)n3C)cc1`, the RP-LC retention time came to 832 s.

`CCN(CC)CCCNC(=O)C1CCCN(c2nc3ccccc3n(Cc3ccccc3)c2=O)C1` (centres undefined): the RP-LC retention time is 726 s.

Take `CCOc1ccc(N2CC(c3nc(-c4ccccc4F)no3)CC2=O)cc1` (centres undefined): the RP-LC retention time came out at 967 s.

`COc1ccc(-c2nc3cc(C)ccn3c2NC(=O)c2ccc(OC)cc2OC)cc1` returned an RP-LC retention time of 706 s.

Regarding `Cc1nnc(-c2ccc(OCC(=O)N(C(C)C)C(C)C)cc2)o1`, the RP-LC retention time was found to be 708 s.

Molecule `Cc1ccn2c(NC(=O)c3ccco3)c(-c3ccccc3)nc2c1` gave an RP-LC retention time of 622 s.

On to `Cc1nc(-c2ccccc2)cc2nn(CC(=O)Nc3ccc4c(c3)OCO4)c(=O)n12`, for which the RP-LC retention time was 719 s.

As for `Cc1ccccc1-c1cc(C(=O)N2CCC(NC(=O)C3CCCC3)CC2)[nH]n1`, the RP-LC retention time came out at 712 s.
